Measured values reported in ChEMBL document CHEMBL4715817, “Python Cathelicidin CATHPb1 Protects against Multidrug-Resistant Staphylococcal Infections by Antimicrobial-Immunomodulatory Duality” (J Med Chem, 2018).
Values after ≈ are worked out from the molar mass of the structure shown. Active and inactive are the calls of the source. The calls are words filed in the database; no cut-off is given here. Peptide text beside a SMILES is read from it.

Legend:
[1] = Toxicity in Kunming mouse assessed as effect on IL-10 levels at 10 mg/kg, ip measured after 5 hrs by ELISA; type: organism-based; conditions: in vivo
[2] = system: Klebsiella oxytoca; test: Antibiofilm activity against Klebsiella oxytoca assessed as biofilm eradication at BIC-5 by XTT and crystal violet staining assay relative to control; type: functional
[3] = Immunomodulatory activity in mouse peritoneal macrophage assessed as inhibition of LPS-induced IL-6 level at 5 ug/ml measured after 6 hrs by qRT-PCR analysis relative to control; type: functional
[4] = system: Nakaseomyces glabratus; test: Antibiofilm activity against Candida glabrata assessed as biofilm eradication at BIC-5 by XTT and crystal violet staining assay relative to control; type: functional
[5] = system: Staphylococcus aureus; test: In vivo antibacterial activity against vancomycin resistant Staphylococcus aureus infected in ip dosed kunming mouse assessed as increase in survival rate administered 4 hrs after infection and measured up to 7 days after infection; type: functional, organism-based; conditions: dose 5-20 mg/kg, time day <=7
[6] = system: Macrophage; test: Inhibition of NFkappaB in mouse peritoneal macrophage assessed as LPS-induced IkappaBalpha degradation at 5 to 20 ug/ml pretreated for 1 hr followed by LPS stimulation measured after 30 mins by Western blot analysis; type: tissue-based; conditions: dose 20.0 µg/ml, time 1.5 hrs
[7] = system: Mus musculus; test: Immunomodulatory activity in Kunming mouse infected with vancomycin-resistant Staphylococcus aureus assessed as increased in MCP-1 level in peritoneal lavage at 10 mg/kg, ip administered 4 hrs after infection by ELISA; type: functional, organism-based
[8] = biological target: Mitogen-activated protein kinase 1 and 3 (ERK2 and ERK1) (Mus musculus) (UniProt P63085+Q63844); test: Inhibition of LPS-induced phosphorylation of Erk1/2 in mouse peritoneal macrophage at 20 ug/ml pretreated for 1 hr followed by LPS stimulation measured after 30 mins by Western blot analysis relative to control; type: tissue-based; conditions: dose 20.0 µg/ml, time 1.5 hrs
[9] = system: Staphylococcus aureus; test: Antibacterial activity against vancomycin-resistant Staphylococcus aureus assessed as bacterial growth inhibition in presence of 50 mmol NaCl; type: functional
[10] = system: Staphylococcus aureus; test: Antimicrobial activity against Staphylococcus aureus IS 08032706 incubated for 16 to 18 hrs by fluorescence microplate reader analysis; type: functional; conditions: time 16-18 hrs
[11] = system: Staphylococcus aureus; test: In vivo antibacterial activity against vancomycin resistant Staphylococcus aureus infected in kunming mouse assessed as reduction in bacterial load in peritoneum at 10 mg/kg, im measured 18 hrs after infection; type: functional, organism-based
[12] = system: Neutrophil; test: Immunomodulatory activity in neutrophils (unknown origin) assessed as increase in CXCL1/KC level at 20 ug/ml measured after 12 hrs by ELISA; type: functional, cell-based; conditions: dose 20.0 µg/ml
[13] = system: Candida albicans; test: Antimicrobial activity against Candida albicans IS 08030809 incubated for 16 to 18 hrs by fluorescence microplate reader analysis; type: functional; conditions: time 16-18 hrs
[14] = system: Neutrophil; test: Immunomodulatory activity in neutrophils (unknown origin) assessed as increase in MCP-1 level at 20 ug/ml measured after 12 hrs by ELISA; type: functional, cell-based; conditions: dose 20.0 µg/ml
[15] = system: Escherichia coli; test: Antimicrobial activity against Escherichia coli IS 08032813 incubated for 16 to 18 hrs by fluorescence microplate reader analysis; type: functional; conditions: time 16-18 hrs
[16] = system: Mus musculus; test: Immunomodulatory activity in Kunming mouse infected with vancomycin-resistant Staphylococcus aureus assessed as decreased in IL-6 level in peritoneal lavage at 10 mg/kg, ip administered 24 hrs before infection by ELISA; type: functional, organism-based
[17] = system: Macrophage; test: Immunomodulatory activity in mouse peritoneal macrophage assessed as increase in MCP-1 level at 20 microg/ml measured after 24 hrs by ELISA; type: functional, tissue-based; conditions: dose 20.0 µg/ml
[18] = system: Macrophage; test: Immunomodulatory activity in mouse peritoneal macrophage assessed as inhibition of LPS-induced IL-1beta level measured after 6 hrs by qRT-PCR analysis; type: functional, tissue-based; conditions: dose 5-20 µg/ml
[19] = Toxicity in Kunming mouse assessed as effect on IL-1beta levels at 10 mg/kg, ip measured after 5 hrs by ELISA; type: organism-based; conditions: in vivo
[20] = system: Neutrophil; test: Immunomodulatory activity in neutrophils (unknown origin) assessed as effect on TNF-alpha level at 20 ug/ml measured after 12 hrs by ELISA; type: functional, cell-based; conditions: dose 20.0 µg/ml
[21] = system: Mus musculus; test: Immunomodulatory activity in mouse assessed as increase […] of MCP-1 in peritoneal cavity at 10 mg/kg, ip measured after 5 to 24 hrs by ELISA; type: functional, organism-based; conditions: time 5-24 hrs
[22] = system: Escherichia coli; test: In vivo antibacterial activity against Escherichia coli ATCC 25922 infected in kunming mouse assessed as decrease in bacterial load in peritoneal lavage at 10 mg/kg, ip administered 4 hrs after infection and measured 18 hrs after infection; type: functional, organism-based; conditions: time 14.0 hrs
[23] = system: Mus musculus; test: Immunomodulatory activity in Kunming mouse infected with vancomycin-resistant Staphylococcus aureus assessed as increased in MCP-1 level in peritoneal lavage at 10 mg/kg, ip administered 24 hrs before infection by ELISA; type: functional, organism-based
[24] = system: RAW264.7; test: Induction of ROS production in mouse RAW 264.7 cells by fluorescence assay; type: functional, cell-based; conditions: dose 10-40 µg/ml
[25] = system: Staphylococcus aureus; test: Antimicrobial activity against methicillin sensitive Staphylococcus aureus ATCC 25923 incubated for 16 to 18 hrs by fluorescence microplate reader analysis; type: functional; conditions: time 16-18 hrs
[26] = system: Mus musculus; test: Immunomodulatory activity in Kunming mouse infected with vancomycin-resistant Staphylococcus aureus assessed as effect number of inflammatory monocytes in peritoneal cavity at 10 mg/kg, ip measured upto 24 hrs by flow cytometry; type: functional, organism-based; conditions: time hrs <=24
[27] = system: Nocardia asteroides; test: Antimicrobial activity against Nocardia asteroids incubated for 16 to 18 hrs by fluorescence microplate reader analysis; type: functional; conditions: time 16-18 hrs
[28] = Hemolytic activity in human erythrocytes measured at 100 ug/ml; type: ADME, cell-based, Erythrocyte; conditions: at 100 µg/mL, read-out: Activity
[29] = system: Candida albicans; test: Antimicrobial activity against Candida albicans IS 08022710 incubated for 16 to 18 hrs by fluorescence microplate reader analysis; type: functional; conditions: time 16-18 hrs
[30] = system: Staphylococcus aureus; test: In vivo antibacterial activity against vancomycin resistant Staphylococcus aureus infected in kunming mouse assessed as reduction in bacterial load in peritoneal lavage at 10 mg/kg, ip administered 24 hrs before infection; type: functional, organism-based
[31] = system: Mus musculus; test: Immunomodulatory activity in Kunming mouse infected with vancomycin-resistant Staphylococcus aureus assessed as increased in CXCL1/KC level in peritoneal lavage at 10 mg/kg, ip administered 4 hrs after infection by ELISA; type: functional, organism-based
[32] = system: Staphylococcus aureus; test: In vivo antibacterial activity against vancomycin resistant Staphylococcus aureus infected in neutropenic kunming mouse model assessed as bacterial load in peritoneal lavage at 10 mg/kg, ip administered 24 hrs before infection; type: functional, organism-based
[33] = Toxicity in Kunming mouse assessed as effect on MIP-2 levels at 10 mg/kg, ip measured after 5 hrs by ELISA; type: organism-based; conditions: in vivo
[34] = system: Macrophage; test: Immunomodulatory activity in mouse peritoneal macrophage assessed as inhibition of LPS-induced MCP-1 level measured after 6 hrs by qRT-PCR analysis; type: functional, tissue-based; conditions: dose 5-20 µg/ml
[35] = system: Stenotrophomonas maltophilia; test: Antimicrobial activity against Stenotrophomonas maltophilia IS 090223 incubated for 16 to 18 hrs by fluorescence microplate reader analysis; type: functional; conditions: time 16-18 hrs
[36] = system: Mus musculus; test: Immunomodulatory activity in mouse assessed as increase […] of KC in peritoneal cavity at 10 mg/kg, ip measured after 5 to 24 hrs by ELISA; type: functional, organism-based; conditions: time 5-24 hrs
[37] = system: Mus musculus; test: Immunomodulatory activity in Kunming mouse infected with vancomycin-resistant Staphylococcus aureus assessed as decreased in TNF-alpha level in peritoneal lavage at 10 mg/kg, ip administered 4 hrs after infection by ELISA; type: functional, organism-based

Chain of Mitogen-activated protein kinase 1 and 3 (ERK2 and ERK1) (Mus musculus) (P63085 whole entry, looked up): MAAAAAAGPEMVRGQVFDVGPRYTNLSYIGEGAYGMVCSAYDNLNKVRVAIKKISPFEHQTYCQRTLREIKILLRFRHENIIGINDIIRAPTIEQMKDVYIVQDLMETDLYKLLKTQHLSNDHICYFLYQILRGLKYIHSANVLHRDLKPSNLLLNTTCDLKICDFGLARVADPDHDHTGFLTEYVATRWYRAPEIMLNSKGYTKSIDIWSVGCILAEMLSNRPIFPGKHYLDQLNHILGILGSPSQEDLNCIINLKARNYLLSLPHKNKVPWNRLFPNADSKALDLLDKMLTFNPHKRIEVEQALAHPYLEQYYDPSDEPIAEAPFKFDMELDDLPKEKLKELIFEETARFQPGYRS
Chain of Mitogen-activated protein kinase 1 and 3 (ERK2 and ERK1) (Mus musculus) (Q63844 whole entry, looked up): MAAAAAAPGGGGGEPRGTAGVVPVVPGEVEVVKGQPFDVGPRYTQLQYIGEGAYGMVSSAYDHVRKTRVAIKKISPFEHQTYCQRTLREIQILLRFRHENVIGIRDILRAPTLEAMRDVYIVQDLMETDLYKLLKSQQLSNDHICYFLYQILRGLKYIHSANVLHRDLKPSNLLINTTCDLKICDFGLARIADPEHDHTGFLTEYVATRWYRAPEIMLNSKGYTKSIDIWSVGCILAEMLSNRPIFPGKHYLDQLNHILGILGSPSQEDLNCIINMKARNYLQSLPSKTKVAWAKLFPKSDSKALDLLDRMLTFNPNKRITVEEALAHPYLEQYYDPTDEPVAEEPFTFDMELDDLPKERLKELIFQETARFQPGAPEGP

CC[C@H](C)[C@H](NC(=O)[C@@H]1CCCN1C(=O)[C@@H](NC(=O)[C@@H](NC(=O)CNC(=O)CNC(=O)[C@@H](NC(=O)[C@H](Cc1ccccc1)NC(=O)[C@@H](NC(=O)[C@H](CCCCN)NC(=O)[C@@H](NC(=O)[C@H](CCCCN)NC(=O)[C@H](CCCCN)NC(=O)[C@H](Cc1ccccc1)NC(=O)[C@@H](NC(=O)[C@H](CCCCN)NC(=O)[C@H](CCCNC(=N)N)NC(=O)[C@H](Cc1ccccc1)NC(=O)CNC(=O)[C@H](CCCCN)NC(=O)[C@H](CCCCN)NC(=O)[C@@H](NC(=O)[C@H](CCCCN)NC(=O)[C@H](CCCNC(=N)N)NC(=O)[C@H](Cc1ccccc1)NC(=O)[C@H](Cc1ccccc1)NC(=O)[C@H](CCCCN)NC(=O)[C@H](CCCCN)NC(=O)[C@H](Cc1ccccc1)NC(=O)[C@H](CCCNC(=N)N)NC(=O)[C@@H](N)CCCCN)[C@@H](C)CC)[C@@H](C)CC)[C@@H](C)O)[C@@H](C)CC)[C@@H](C)CC)[C@@H](C)O)[C@@H](C)CC)C(=O)O (H-KRFKKFFRKIKKGFRKIFKKTKIFIGGTIPI-OH)
Activity [1]: Non-Toxic | Activity [2]: 75.31% | inhibition at 5 µg/mL [3]: 99.6% | Activity [4]: 37.47% | Activity [5]: Dose-dependent effect | inhibition [6]: Active | Activity [7]: Active | inhibition [8]: 90% | MIC [9]: 4.69 µg/mL | MIC [10]: 1.17 µg/mL (≈ 0.308 µM) | Activity [11]: Active | Activity [12]: Active | MIC [13]: 1.17 µg/mL (≈ 0.308 µM) | Activity [14]: Active | MIC [15]: 1.17 µg/mL (≈ 0.308 µM) | Activity [16]: Active | inhibition [17]: Active | inhibition [18]: Dose-dependent effect | Activity [19]: Non-Toxic | Activity [20]: inactive | Activity [21]: Active | Activity [22]: Active | Activity [23]: Active | Activity [24]: Dose-dependent effect | MIC [25]: 1.17 µg/mL (≈ 0.308 µM) | Activity [26]: inactive | MIC [27]: 1.17 µg/mL (≈ 0.308 µM) | hemolysis at 100 ug/ml [28]: 6.63% | MIC [29]: 1.17 µg/mL (≈ 0.308 µM) | Activity [30]: Active | Activity [31]: Active | Activity [32]: inactive | Activity [33]: Non-Toxic | inhibition [34]: Dose-dependent effect | MIC [35]: 1.17 µg/mL (≈ 0.308 µM) | Activity [36]: Active | Activity [37]: Active
